Results taken from patent US20070269843A1, “Diagnostic Assays That Use Mycobacteriophages” (priority 2004, published 2007).
Values joined by “and” are separate entries in the source; they are usually repeats but may differ in a detail not shown here. Equal values may be shown once. Where a name gives a salt, the structure may show the parent alone. Read-outs that look alike come from different tables or passages of the source.

How the values were obtained:
[1] = cited from earlier work
[2] = test system: mycobacteriophage D-29 in M. tuberculosis; settings: cited from earlier work
[3] = test system: Mycobacterium tuberculosis ATCC 27294; assay: FPTB plaque assay with CB-18 present during infection (Example 2); format: cell-based; settings: for Plaque formation following infection in Tris buffer and no pre-culture / Plaque formation following overnight pre-culture in FPTB nutrient broth: duplicates a, b; for Concentration present during infection that does not interfere with the assay: M. tuberculosis ATCC 27294
M. tuberculosis = assay: FPTB plaque assay after exposure to CB-18 with carry-over into the infection buffer (Example 3); format: cell-based, Mycobacterium tuberculosis; settings: 1 mM CB-18, 90 minutes at 37° C.; replicates 1-3, tubes a, b
Method: To examine the effects of both exposing M. tuberculosis to CB-18, and having CB-18 carried over into the infection buffer, the following experiment was performed: A 0.5 MacFarland stock of M. tuberculosis was manufactured as described by Thornton, C. G., et al, Jour. Clin. Microbiol. 36:2004-2013 (1998), and a 0.5 ml portions were transferred to quadruplicate 50 ml conical tubes (FIG. 3). One pair of tubes simply contained 50 mM Tris-HCl pH 7.5 @ 25° C., 66 mM NaCl, and 0.025% NALC, while the other pair of tubes contained the same buffer supplemented with 1 mM CB-18. All tubes were incubated for 90 minutes at 37° C. and then diluted with sterile water to a final volume of 50 ml. In those tubes without CB-18 present, duplicate 250 μl portions were added directly to 1 ml of FPTB nutrient broth. From those tubes that contained CB-18, triplicate 250 μl portions were added to 50 mM Tris-HCl pH 7.5 @ 25° C., 66 mM NaCl, 2 mM CaCl2 buffer. All tubes were then immediately subjected to analysis using the FPTB plaque assay (i.e., the plaque assay was performed without pre-culture).

[4] = test system: M. tuberculosis type strain ATCC 27294; settings: cited from earlier work
[5] = test system: Mycobacterium tuberculosis ATCC 27294; assay: FASTPlaqueTB (FPTB) plaque assay after timed exposure of M. tuberculosis to CB-18 (Example 1); format: cell-based; settings: for Plaque formation following infection in Tris buffer and no pre-culture / Plaque formation following overnight pre-culture in FPTB nutrient broth: duplicates a, b
Method: In an effort to establish the effect of exposure to CB-18 on the M. tuberculosis type strain ATCC 27294, and any relationship of such an effect to time, the following experiment was performed using the FASTPlaqueTB™ (FPTB) assay manufactured by Biotec Laboratories Ltd (Ipswich, Suffolk, U.K.): A 0.5 MacFarland stock of M. tuberculosis was manufactured as described by Thornton, C. G., et al, Jour. Clin. Microbiol. 36:2004-2013 (1998), and a 1 ml portion were transferred to a 50 ml conical tubes containing 50 mM Tris-HCl pH 7.5 @ 25° C., 66 mM NaCl, 1 mM CB-18, and 0.025% N-acetyl-L-cysteine (NALC). From this tube was taken duplicate 500 μl aliquots at 0, 30, 60, 120, and 180 minutes and immediately serially diluted 400-fold to form two dilution series. In the first series (FIG. 1a), serial dilutions were made in nutrient broth (i.e., FPTB broth) provided by the manufacturer. In the second series (FIG. 1b), serial dilutions were made in a 50 mM Tris-HCl pH 7.5 @ 25° C., 66 mM NaCl buffer that had been supplemented with calcium chloride (CaCl2) to a final concentration of 2 mM.
The first series of time point-dilutions were then incubated at 37° C. overnight in FPTB broth prior to being assayed with the FPTB plaque assay. The second series of time point-dilutions were immediately subjected to analysis using the FPTB plaque assay.

[6] = 1 mM CB-18, time of exposure 0 min
[7] = 1 mM CB-18, time of exposure 30 min
[8] = 1 mM CB-18, time of exposure 60 min
[9] = 1 mM CB-18, time of exposure 120 min
[10] = 1 mM CB-18, time of exposure 180 min

Structure (SMILES): O=S(=O)(O)CCCCN1CCOCC1 [MOBS, 4-(N-Morpholino)butanesulfonic acid]
- pKa [1]: 7.60

Structure (SMILES): O=S(=O)(O)CC(O)CN1CCN(CC(O)CS(=O)(=O)O)CC1 (stereo not shown) [POPSO, piperazine-N,N′-bis(2-hydroxypropanesulfonic acid)]
- pKa [1]: 7.80

Structure (SMILES): CCCCCCCC/C=C\CCCCCCCC(=O)OCCOCC(OCCO)C1OCC(OCCO)C1OCCO (stereo not shown) [Tween 80]
- Concentration above which propagation of mycobacteriophage D-29 in M. tuberculosis is interfered with [2]: above 0.0012%
- Concentration above which propagation of mycobacteriophage D-29 in M. tuberculosis is interfered with ([2]; printed as conversion of […]): > 1 EM

Structure (SMILES): NC(=O)CNCCS(=O)(=O)O [ACES, N-(2-Acetamido)-2-aminoethanesulfonic acid]
- pKa [1]: 6.78

Structure (SMILES): O=S(=O)(O)CCN1CCN(CCS(=O)(=O)O)CC1 [PIPES, piperazine-1,4-bis(2-ethanesulfonic acid)]
- pKa [1]: 6.76

Structure (SMILES): CCCCCCCCCCCCCCCCCC[N+](C)(C)CCCC(=O)[O-] [CB-18, N-(3-carboxypropyl)-N,N-dimethyl-1-octadecanaminium, inner salt]
- Plaque formation following infection in Tris buffer and no pre-culture ([3]; CB-18 5 μg/ml present during infection): 171 and 191
- Plaque formation following overnight pre-culture in FPTB nutrient broth ([3]; CB-18 5 μg/ml): >300
- Plaque formation following infection in Tris buffer and no pre-culture ([3]; CB-18 10 μg/ml present during infection): 204 and 186
- Plaque formation following overnight pre-culture in FPTB nutrient broth ([3]; CB-18 10 μg/ml): >300
- Plaque formation following infection in Tris buffer and no pre-culture ([3]; CB-18 20 μg/ml present during infection): 181 and 198
- Plaque formation following overnight pre-culture in FPTB nutrient broth ([3]; CB-18 20 μg/ml): >300
- Plaque formation following overnight pre-culture in FPTB nutrient broth ([3]; CB-18 40 μg/ml): >300
- Concentration present during infection that does not interfere with the assay [3]: ≤ 20 µg/mL
- Concentration present during infection that does not interfere with the assay ([3]; conversion of 20 μg/ml): ≤ 52 µM
- Plaque formation following processing in CB-18, no pre-culture, and infection in Tris-CaCl2 buffer (M. tuberculosis): >300
- Growth characteristics in culture media ([4]; CB-18 present at 20 μg/ml in the culture media): significantly affected
- Tuberculocidal activity ([4]; time-dependent killing): has tuberculocidal activity
- Plaque formation following infection in Tris buffer and no pre-culture [5, 6]: 132 and 121
- Plaque formation following overnight pre-culture in FPTB nutrient broth [5, 6]: >300
- Plaque formation following infection in Tris buffer and no pre-culture [5, 7]: 145 and 167
- Plaque formation following overnight pre-culture in FPTB nutrient broth [5, 7]: >300
- Plaque formation following infection in Tris buffer and no pre-culture [5, 8]: 100 and 90
- Plaque formation following overnight pre-culture in FPTB nutrient broth [5, 8]: >300
- Plaque formation following infection in Tris buffer and no pre-culture [5, 9]: 155 and 140
- Plaque formation following overnight pre-culture in FPTB nutrient broth [5, 9]: >300
- Plaque formation following infection in Tris buffer and no pre-culture [5, 10]: 213 and 221
- Plaque formation following overnight pre-culture in FPTB nutrient broth [5, 10]: >300
- Effect of exposure on D-29 mycobacteriophage plaque assay ([5]; 1 mM CB-18 for 30, 60, 120, and 180 minutes): no deleterious effects

Structure (SMILES): NC(=O)CN(CC(=O)O)CC(=O)O [ADA, N-(2-Acetamido)iminodiacetic acid]
- pKa [1]: 6.59

Structure (SMILES): O=S(=O)(O)CCCCN1CCN(CCO)CC1 [HEPBS, N-(2-Hydroxyethyl)piperazine-N′-(4-butanesulfonic acid)]
- pKa [1]: 8.30
